Type in all cases: cell-based
The subject of assay [1] is Staphylococcus aureus. In words: disinfection at low concentration in aqueous solution. The settings on record: 25 mg/L in aqueous solution; dependent on pH. The source says:
In various embodiments provided herein, the N-halamine is 1-chloro-2,2,5,5-tetramethyl-4-imidazolidinone (“compound I”). Compound I is a stable N-halamine both in aqueous solution and in the solid state as long as it is not exposed to direct sunlight or extensive UV radiation. At ambient temperature, the hydrolysis equilibrium constant of compound I to produce its precursor 2,2,5,5-tetramethyl-4-imidazolidinone and “free chlorine” (HOCl) is lower than 10^−11. At low concentration in aqueous solution (e.g., 25 mg/L), long contact times (typically between 1-10 hours, dependent on pH) are required to obtain a 6-log reduction of Staphylococcus aureus. […] Furthermore, compound I is inexpensive and may be prepared according to the procedures described in U.S. Pat. No. 5,057,612, U.S. Pat. No. 5,126,057, or Tsao et al. (“Novel N-halamine Disinfectant Compounds,” Biotechnol. Prog., 1991; 7:60), the disclosures of all which are incorporated herein in their entirety.

Assay [2] has as its system Staphylococcus aureus ATCC 6538. In words: sandwich contact test, polypropylene nonwoven face-piece material. The settings on record: inoculum 6.26 log. The protocol: (§1) Compound I (1-chloro-2,2,5,5-tetramethyl-imidazolindinone) at 1 wt %) was dissolved in ethyl alcohol solution at room temperature, and then 300 cm^2 pieces of polypropylene nonwoven fabrics were soaked in the solution for 10 minutes. The fabrics were then padded through a laboratory wringer (Birch Brothers Southern, Waxhaw, N.C., U.S.A.) at low pressure settings. This procedure was followed by drying the fabrics at room temperature for 24 hours. The control fabrics were untreated 22 g/m^2 and 50 g/m^2 polypropylene nonwovens.
(§2) Two types of tests were conducted in order to determine the biocidal efficacy of the face mask embodiments. Staphylococcus aureus (S. aureus, ATCC 6538) was used as a Gram-positive bacterium and Escherichia coli(E. coli O157:H7, ATCC 43895) was used as a Gram-negative bacterium in order to challenge the treated (impregnated with compound I) and non-treated (control) fabrics.
(§3) In the first method, a “sandwich test” was used (see Worley et al., “Novel N-halamine Siloxane Monomers and Polymers for Preparing Biocidal Coatings,” Surf Coat. Int., Part B, 2005; 88:93). In this procedure, bacteria were suspended in 100 μM phosphate buffer (pH 7) to produce a suspension of known concentration of bacteria (colony forming units, CFU/mL). Then, an aliquot of 25 μL of this suspension was placed in the center of a 2.54 cm square swatch, and a second identical swatch was placed on top. Both swatches were covered by a sterile weight to ensure sufficient contact with the bacteria. After predetermined contact times, samples were quenched by 5.0 mL of sterile 0.02 N sodium thiosulfate solution to neutralize the oxidative chlorine and thus terminate the disinfection action. Samples were vortexed for 2 minutes, and then serial dilutions were prepared using pH 7, 100 μM phosphate buffer and plated on Trypticase soy agar plates. After incubating the plates at 37° C. for 24 hours, bacterial colonies were counted for the biocidal efficacy analysis. For each contact time a single fabric swatch sandwich was vortexed in a quenching solution to wash the bacteria into a suspension which was immediately plated into duplicate serial dilutions followed by incubation and counting the viable colonies of bacteria. All experiments were performed at least twice (on different days) using different bacterial inocula.
(§4) Antimicrobial efficacy of the mask materials was analyzed by the sandwich contact test method. The antimicrobial efficacies of the treated (impregnated with compound I) and non-treated (control) swatches were evaluated by challenging both types of fabrics against S. aureus and E. coli O157:H7 where the bacteria inoculum population was 1.80×10^6 CFU and 1.27×10^6 CFU, respectively. In Table 2, antimicrobial results are summarized at different contact time intervals.

Assay [3] deals with Escherichia coli O157:H7 ATCC 43895. The description is as above. The following applies: inoculum 6.10 log. The protocol: as §1, §2, §3, §4
Where [4] appears, read: 22 g/m^2 fabric, Cl^+ % = 0.52, contact time 5 min.
The mark [5] stands for this setting: 22 g/m^2 fabric, Cl^+ % = 0.52, contact time 10 min.
Where [6] appears, read: 22 g/m^2 fabric, Cl^+ % = 0.52, contact time 15 min.
The mark [7] stands for this setting: 22 g/m^2 fabric, Cl^+ % = 0.52, contact time 30 min.
Where [8] appears, read: 50 g/m^2 fabric, Cl^+ % = 0.52, contact time 5 min.
[9] abbreviates: 50 g/m^2 fabric, Cl^+ % = 0.52, contact time 10 min.
Setting [10] is: 50 g/m^2 fabric, Cl^+ % = 0.52, contact time 15 min.
The mark [11] stands for this setting: 50 g/m^2 fabric, Cl^+ % = 0.52, contact time 30 min.

Turning to `CC1(C)NC(=O)C(C)(C)N1Cl` [Compound I, 1-chloro-2,2,5,5-tetramethyl-4-imidazolidinone], the “contact time required to obtain a 6-log reduction” value in assay [1] is given as 1-10 hours. Also, the “Bacterial reduction (log) S. aureus” value amounted to 4.13 log in assay [2] (setting [4]); 6.26 log in assay [2] (setting [5]); 6.26 log in assay [2] (setting [6]); 6.26 log in assay [2] (setting [7]); 6.26 log in assay [2] (setting [8]); 6.26 log in assay [2] (setting [9]). In addition, the “Bacterial reduction (log) S. aureus” value in assay [2] (setting [10]) and in assay [2] (setting [11]) was 6.26 log in each case. The “Bacterial reduction (log) E. coli” value is 3.68 log in assay [3] (setting [4]); 6.10 log in assay [3] (setting [5]); 6.10 log in assay [3] (setting [6]); 6.10 log in assay [3] (setting [7]); 3.80 log in assay [3] (setting [8]); 6.10 log in assay [3] (setting [9]). Also, the “Bacterial reduction (log) E. coli” value in assay [3] (setting [10]) and in assay [3] (setting [11]) was 6.10 log throughout.
